Data reported in US20240041820A1, “SENOTHERAPEUTIC COMPOUND” (BIONEXA S.R.L., priority 2020, published 2024).
“Also recorded” adds a separate entry of the source.

Key:
Assay type in all cases: cell-based
[1] = tested on: human pancreatic epithelial cells PANC-1; test: Senolytic activity on doxorubicin-induced senescent PANC-1 cells (crystal violet survival); conditions: senescent PANC-1, 1-60 μM, 72 h (FIG. 3a)
Procedure: (§1) The successful conversion to the senescent cell phenotype was confirmed by morphological changes (flattening and cell enlargement) and positivity for lysosomal beta-galactosidase (β-GAL). The SA-β-GAL (senescence-associated β-GAL) senescence assay was performed with the SA-β-Gal Staining Kit (Cell Signaling Technology, Inc., Danvers, MA). Briefly, after fixation with […] for 15 min at room temperature, senescent cells were quantified by calculating the percentage of SA-β-GAL positive (blue stained) cells present in culture by examining 200 cells per well with the phase contrast microscope EVOS XL Cell Imaging System (Thermo Fisher; objective, 40X).
(§2) Senolytic activity on senescent human cells (in 96-well plates) was evaluated after specific treatments (for 72 h), including vehicle (DMSO; negative control), quercetin (Que; positive control) or different compounds according to the ‘invention bearing identification codes as fully illustrated also in patent application WO 2019/008537 A1, filed on May 7, 2017 in the name of Vera Salus Ricerca SrI (FIGS. 1, 2 and 3) from page 91 to page 106 and in the relative Figures. At the end of the treatments, cell survival was quantified by crystal violet staining. […] After further washing with water (3X), 100 μl of acetic acid (10%) were added per well and the absorbance (λ=590 nm) measured with a Synergy spectrophotometer (AHSI). […]

[2] = tested on: human lung epithelium cells A549; test: Senolytic activity on doxorubicin-induced senescent A549 cells (crystal violet survival); conditions: senescent A549, 1-60 μM, 72 h (FIG. 3c)
Procedure: as §1, §2

[3] = tested on: human hepatic epithelial cells HepG2; test: Senolytic activity on doxorubicin-induced senescent HepG2 cells (crystal violet survival); conditions: senescent HepG2, 1-60 μM, 72 h (FIG. 3b)
Procedure: as §1, §2

[4] = tested on: human intestinal epithelium cells HCT116; test: Senolytic activity on doxorubicin-induced senescent HCT116 cells (crystal violet survival); conditions: senescent HCT116, 1-60 μM, 72 h (FIG. 2a)
Procedure: as §1, §2

[5] = tested on: human renal epithelial cells 786-0; test: Senolytic activity on doxorubicin-induced senescent 786-0 cells (crystal violet survival); conditions: senescent 786-0, 1-60 μM, 72 h (FIG. 2b)
Procedure: as §1, §2

[6] = tested on: human WS1 fibroblast cells; test: Senolytic activity on doxorubicin-induced senescent WS1 fibroblasts (crystal violet survival)
Procedure: as §1
Senolytic activity on senescent human cells (in 96-well plates) was evaluated after specific treatments (for 72 h), including vehicle (DMSO; negative control), quercetin (Que; positive control) or different compounds according to the ‘invention bearing identification codes as fully illustrated also in patent application WO 2019/008537 A1, filed on May 7, 2017 in the name of Vera Salus Ricerca SrI (FIGS. 1, 2 and 3) from page 91 to page 106 and in the relative Figures. At the end of the treatments, cell survival was quantified by crystal violet staining. Briefly, cells were fixed with paraformaldehyde (4%) in PBS for 20 min, washed (2X in distilled water) and stained with 1% crystal violet (for 20 min). After further washing with water (3X), 100 μl of acetic acid (10%) were added per well and the absorbance (λ=590 nm) measured with a Synergy spectrophotometer (AHSI). Each experiment was carried out in quadruplicate and repeated at least three times, on three different days. Senolytic activity was expressed as % of senescent cells eliminated with respect to the control condition (DMSO). Results were presented as means±SEM (standard error of mean) and related analyzes were performed with GraphPadPrism® 6.0 software (CA, USA).
In a first step, the senolytic activities of the compounds according to the invention were investigated in human WS1 fibroblast cells (normal fibroblasts of cutaneous origin, ATCC® CRL-1502™). WS1 cell senescence was induced with 100 nM doxorubicin (24 h) and 12 days of recovery, while the senolytic activity was quantified after treatments with vehicle (DMSO), quercetin (Que, 20 μM), quercetin (20 μM) plus dasatinib (DAS, 200 nM; other positive control) or 18 distinct compounds according to the invention used at a concentration of 20 μM, alone (FIG. 1a) or in the presence of 200 nM dasatinib (FIG. 1b).

## COc1ccc(-c2ccc(C(=O)NCCOCCOc3c(-c4ccc(O)c(O)c4)oc4cc(O)cc(O)c4c3=O)cc2)cc1 [29g]
[1]
  senolytic activity compared with quercetin: significantly higher than quercetin
[2]
  senolytic activity compared with quercetin: significantly higher than quercetin
[3]
  senolytic activity compared with quercetin: significantly higher than quercetin
[4]
  senolytic activity compared with quercetin: significantly higher than quercetin
[5]
  senolytic activity compared with quercetin: significantly higher than quercetin
[6]; senescent WS1, 20 μM alone vs quercetin 20 μM, 72 h (FIG. 1a)
  senolytic effect relative to that of quercetin: ~3 times
[6]; senescent WS1, 20 μM alone, 72 h (FIG. 1a)
  senolytic effect in words, compared with the other compounds / treatments: maximum senolytic effects; also recorded: higher senolytic effect than all the other compounds
[6]; senescent WS1, compound 20 μM alone vs quercetin 20 μM + dasatinib 200 nM, 72 h
  senolytic effect of compound alone compared with the combination quercetin plus dasatinib: greater than the combination of quercetin plus dasatinib
[6]; senescent WS1, compound 20 μM alone, 72 h (FIG. 1a)
  senolytic effect (% of senescent cells eliminated with respect to DMSO control): ~60%
[6]; senescent WS1, compound 20 μM in the presence of 200 nM dasatinib vs quercetin 20 μM + dasatinib 200 nM, 72 h (FIG. 1b)
  senolytic action compared with quercetin plus dasatinib: more effective
